Key:
[1] = tested on: PDAC cells (MiaPaCa-2, cfPac-1); assay: Surface PS by annexin V-FITC flow cytometry after GEM exposure in vitro; assay type: cell-based, human
Description: (§1) Cells were isolated 48 hr. following treatment with 40 mg/kg GEM, stained with annexin V-FITC and analyzed by flow cytometry. Only those cells that were negative for PI staining were assessed for annexin V labeling. Less than 10% of the cells (in vitro or in vivo) were killed by the GEM treatment.
Phosphatidylserine levels measurements. Surface membrane PS levels were measured using annexin V-FITC (Invitrogen, Carlsbad, CA) as previously described (Chu et al. PLoS One 2013; 8(10):e75507, Davis et al. Oncotarget 2019; 10:856-868). In brief, cells were harvested using trypsin-EDTA (Thermo Fisher Scientific); the trypsin was inactivated with complete media and the cells were washed with PBS and resuspended at 1,000,000 cells/ml in annexin staining buffer. Aliquots of cells (0.1 ml/tube) were incubated with 10 μl of annexin V-FITC for 15 minutes at room temperature in the dark. Then 400 μl of annexin staining buffer was added to each tube. Samples were kept on ice and analyzed by flow cytometry within 1 hour after addition of 2 μl of 50 μg/ml propidium iodide (PI; to exclude dead cells). […] To this end, cells were incubated for 24 or 48 hr. with 10 nM-1 μM GEM and then stained with annexin V-FITC and PI and analyzed by flow cytometry.

[2] = tested on: MiaPaCa-2 subcutaneous tumors; assay: Surface PS of tumor cells isolated from subcutaneous xenografts after GEM in vivo; design: species or system mouse
Description: as §1
For assessment of surface PS, when the subcutaneous tumors were 100-300 mm^3, some mice were treated with 40 mg/kg GEM and the tumors were removed 48 hr. later. The tumors were minced then incubated with 5 ml of collagenase type IV (200 U/ml) at 37° C. for 2 hrs. The cells were passed through a 40 μm filter, washed with PBS then stained with annexin V-FITC and analyzed by flow cytometry.

[3] = Mouse body weight during treatment; assay type: in vivo; settings: tumor-bearing mice, compared to control or to GEM alone
Description: The mice treated in FIG. 6 were weighed on the indicated days. […] However, SapC-DOPS prevented the weight loss due to GEM alone. *p<0.01 between saline and GEM alone. #p<0.01 between GEM and SapC-DOPS or GEM and the combination of GEM and SapC-DOPS.

[4] = tested on: human pancreatic duct epithelial cells (HPDE); assay: Surface PS after GEM exposure in normal pancreatic cells; assay type: cell-based; settings: response to gemcitabine
Description: Phosphatidylserine levels measurements. Surface membrane PS levels were measured using annexin V-FITC (Invitrogen, Carlsbad, CA) as previously described (Chu et al. PLoS One 2013; 8(10):e75507, Davis et al. Oncotarget 2019; 10:856-868). In brief, cells were harvested using trypsin-EDTA (Thermo Fisher Scientific); the trypsin was inactivated with complete media and the cells were washed with PBS and resuspended at 1,000,000 cells/ml in annexin staining buffer. Aliquots of cells (0.1 ml/tube) were incubated with 10 μl of annexin V-FITC for 15 minutes at room temperature in the dark. Then 400 μl of annexin staining buffer was added to each tube. Samples were kept on ice and analyzed by flow cytometry within 1 hour after addition of 2 μl of 50 μg/ml propidium iodide (PI; to exclude dead cells). The effects of GEM exposure on surface PS levels were studied in human PDAC cell lines (cfPac-1 and Mia-PaCa-2), a mouse PDAC cell line (p53 2.1.1) (Collisson et al. Cancer Discov 2012; 2(8):685-93) and immortalized, non-tumorigenic human pancreatic duct epithelial cells (HPDE). To this end, cells were incubated for 24 or 48 hr. with 10 nM-1 μM GEM and then stained with annexin V-FITC and PI and analyzed by flow cytometry.

[5] = tested on: MiaPaCa-2 cells; assay: Cell cycle stage targeting in hydroxyurea-synchronized cells; assay type: cell-based, human; settings: G1 synchronized MiaPaCa-2; 1 μM GEM 24 hrs or 30 μM SapC-DOPS 48 hrs
[6] = tested on: cfPac-1 cells; assay: MTT viability of cells sorted into low and high surface PS populations after GEM; assay type: cell-based, human
Description: Cell Sorting. Cells were grown to 60-80% confluency then stained with annexin V-FITC as above but without PI. The cells were then passed through a cell sorter (BD Aria III) and cells with low and high surface PS were collected (˜15% of the cells at each end of the peak; see FIG. 1). The cells were placed in 96 well plates and immediately treated with 0, 25 or 50 nM of GEM. The MTT assay (Roche) was conducted 72 hr later to determine the effect of the GEM on cell viability.

[7] = tested on: cfPac-1 and MiaPaCa-2 cells; assay: Western blot cyclin B1/cyclin D1 ratio after GEM or SapC-DOPS; assay type: cell-based, human; settings: cfPac-1 and MiaPaCa-2, western blot after treatment
Description: Protein expression of cyclins D1 (a G1 marker) and B1 (a G2/M marker) following treatment with GEM or SapC-DOPS was measured by western blot and the cyclin B1 to cyclin D1 ratio was quantified in cfPac-1.
Western blot analyses. Following treatment with GEM or SapC-DOPS, cells were washed with PBS and lysed in RIPA Buffer (Sigma) supplemented with protease inhibitor cocktail tablets (Roche). A total of 30 μg of protein extract was separated using 4-15% Mini-PROTEAN Precast Gels (Bio-Rad) and transferred to Hybond-ECL Nitrocellulose membrane (Biosciences). Membranes were blocked for 1 hr. in 5% nonfat dry milk in 0.1% Tween-20 in PBS at 4° C. Blocked membranes were incubated with primary antibodies overnight at 4° C. Subsequently, membranes were washed 3 times for 10 min. with 0.1% Tween-20 in PBS. Secondary antibodies were incubated for 1 hr. at room temperature. Membranes were washed as above and incubated with SuperSignal West Dura Extended Duration Substrate (Thermo Scientific) for 5 min. Detection was performed using the ChemiDoc Touch Imaging System (Bio-Rad). Image Lab 5.2.1 software (Bio-Rad) was used to quantify the proteins on the western blots.

[8] = tested on: cfPac-1, MiaPaCa-2 and p53.2.2.1 cells; assay: Cell cycle analysis by Hoechst staining after GEM or SapC-DOPS; assay type: cell-based, human, mouse; settings: GEM 1-2 μM 24 hrs; SapC-DOPS 20-30 μM 72 hrs
Description: For cell cycle analyses of cells treated with GEM or SapC-DOPS, MiaPaCa-2, cfPac-1 and p53.2.2.1 cells were cultured to 70% confluency. Cells (2.5×10^5) were plated overnight in 60 mm cell culture plates. MiaPaCa-2, cfPac-1 and p53.2.2.1 were treated with 1 μM, 2 μM, and 1 μM GEM respectively for 24 hrs. or with 30 μM, 25 μM and 20 μM SapC-DOPS respectively for 72 hrs. (MiaPaCa-2 and p53.2.2.1) or 24 hrs (cfPac-1). Following treatment, 10^6 cells were stained with Hoechst 33342 as described above.

SMILES: Nc1ccn([C@@H]2O[C@H](CO)[C@@H](O)C2(F)F)c(=O)n1 [GEM, 2′, 2′-difluoro 2′deoxycytidine]
- surface PS in viable (PI-negative) PDAC cells ([1]; sub-toxic GEM, 48 hr, annexin V-FITC): increased surface PS in viable PDAC cells
- apoptosis at sub-toxic concentrations ([1]; sub-toxic concentrations of GEM, PDAC cells): < 10%
- surface PS in tumor cells isolated from subcutaneous xenografts ([2]; 48 hrs after 40 mg/kg GEM in vivo): induced an increase in surface PS in tumor cells
- cells killed by the GEM treatment ([2]; in vitro or in vivo, FIG. 4 treatments): Less than 10%
- mouse weight [3]: significant decrease in mouse weight
- PS surface expression in normal pancreatic cells [4]: no increased PS surface expression
- targeting of cells when G1 synchronized cells are treated [5]: increased targeting of G1 cells compared to SapC-DOPS
- cell death in low vs high surface PS populations ([6]; sorted cells, 50 nM GEM): cell death was more profound in the low surface PS population compared to the high surface PS population
- cell killing in low vs high surface PS populations ([6]; sorted cfPac-1 cells, GEM 72 hr, MTT): killed more cells from the low surface PS population compared to the high surface PS population
- cyclin B1/cyclin D1 protein ratio [7]: an increase in the cyclin B1/cyclin D1 ratio
- percentage of cells in G1 phase [8]: significant decrease in the percentage of cells in the G1 phase
- percentage of cells in G2/M phase [8]: increased percentage in the G2/M phase

Source: patent US12478658B2, “Enhanced efficacy of combination of gemcitabine and phosphatidylserine-targeted nanovesicles against pancreatic cancer” (University of Cincinnati, priority 2020, dated 2025)
